In ChEMBL document CHEMBL1132050, “Synthesis of novel analogues of the delta opioid ligand SNC-80 using AlCl3-promoted aminolysis” (Bioorg Med Chem Lett, 1999):

Columns and labels:
Mus musculus [1] = assay: Antinociceptive activity against acetic acid induced abdominal constriction model in mice by sc administration; assay type: functional; conditions: Abdomen
Mus musculus [2] = assay: Maximum efficacy in Mouse vas deferens (MVD) functional assay was determined […] at a compound concentration of 10E-10 to 10E-5
Cricetinae gen. sp. [3] = assay: Maximum efficacy in the Hamster vas deferens (HVD) functional assay was determined […] at a compound concentration of 10E-10 to 10E-5
[4] = target: T1, Delta-type opioid receptor (Homo sapiens, UniProt P41143); assay: Inhibition of binding of [3H]- -naltrindole (0.15 nM) to membranes from CHO cells expressing Opioid receptor delta 1; assay type: cell membranes
[5] = target: Kappa-type opioid receptor (Cavia porcellus, UniProt P41144); assay: Binding affinity towards Opioid receptor kappa 1 using [3H]- U-69,593 (1.5 nM) as radioligand in guinea pig brain membranes; assay type: cell membranes, Membrane
Mu-type opioid receptor = Mu-type opioid receptor (Rattus norvegicus, UniProt P33535); assay: Binding affinity towards mu opioid receptor using [3H]- -DAMGO (1.5 nM) as radioligand in rat brain membranes; assay type: cell membranes
Cricetinae gen. sp. [6] = assay: Potency in the Hamster vas deferens (HVD) functional assay was determined […]
Mus musculus [7] = assay: Potency in the Mouse vas deferens (MVD) functional assay was determined […]
[8] = target: T1, Delta-type opioid receptor; assay: Compound was tested for inhibition of binding of [3H]- -naltrindole (0.15 nM) to membranes from CHO cells expressing human delta opioid receptor; assay type: cell membranes

Sequence of Kappa-type opioid receptor (P41144 whole entry): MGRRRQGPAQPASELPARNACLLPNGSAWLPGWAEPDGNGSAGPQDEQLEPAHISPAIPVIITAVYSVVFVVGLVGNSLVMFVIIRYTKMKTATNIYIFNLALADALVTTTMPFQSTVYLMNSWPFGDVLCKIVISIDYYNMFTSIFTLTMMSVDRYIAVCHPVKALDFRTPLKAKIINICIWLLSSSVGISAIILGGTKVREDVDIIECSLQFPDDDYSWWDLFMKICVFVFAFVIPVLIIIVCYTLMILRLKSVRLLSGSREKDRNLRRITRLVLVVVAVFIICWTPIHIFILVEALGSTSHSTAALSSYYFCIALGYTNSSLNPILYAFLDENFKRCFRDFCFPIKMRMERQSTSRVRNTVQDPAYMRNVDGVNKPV
Sequence of Mu-type opioid receptor (P33535 whole entry): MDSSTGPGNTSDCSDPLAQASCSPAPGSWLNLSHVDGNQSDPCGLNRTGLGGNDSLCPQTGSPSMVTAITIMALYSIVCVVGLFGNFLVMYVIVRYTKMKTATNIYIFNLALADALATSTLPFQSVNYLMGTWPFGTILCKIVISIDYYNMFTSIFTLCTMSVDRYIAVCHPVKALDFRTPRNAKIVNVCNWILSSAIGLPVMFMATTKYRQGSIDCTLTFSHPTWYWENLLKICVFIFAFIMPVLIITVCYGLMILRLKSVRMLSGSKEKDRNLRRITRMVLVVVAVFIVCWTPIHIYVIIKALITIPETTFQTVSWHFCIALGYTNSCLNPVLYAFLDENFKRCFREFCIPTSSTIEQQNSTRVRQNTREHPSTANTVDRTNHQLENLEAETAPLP
T1 sequence (P41143 whole entry): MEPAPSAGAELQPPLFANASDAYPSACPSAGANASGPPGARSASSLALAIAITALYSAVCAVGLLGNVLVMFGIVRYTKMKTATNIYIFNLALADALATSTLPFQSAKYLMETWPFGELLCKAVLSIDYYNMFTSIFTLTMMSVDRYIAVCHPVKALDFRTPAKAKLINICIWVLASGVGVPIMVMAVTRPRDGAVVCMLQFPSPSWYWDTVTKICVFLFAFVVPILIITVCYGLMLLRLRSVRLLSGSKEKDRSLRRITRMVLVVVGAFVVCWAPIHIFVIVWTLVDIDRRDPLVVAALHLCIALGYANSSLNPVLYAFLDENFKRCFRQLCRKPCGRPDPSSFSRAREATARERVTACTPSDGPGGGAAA

Row | SMILES | ED50 (Mus musculus [1]) | Efficacy (Mus musculus [2]) | Efficacy (Cricetinae gen. sp. [3]) | IC50 [4] | IC50 [5] | IC50 (Mu-type opioid receptor) | IC50 (Cricetinae gen. sp. [6]) | IC50 (Mus musculus [7]) | IC50 [8]
1 | CCN(CC)C(=O)c1ccc(C(c2ccccc2)N2CCN(Cc3ccc4c(c3)OCO4)CC2)cc1 (centres undefined) | > 200 µmol/kg | 98% | 52% | 1.4 nM | 3900 nM | > 10000 nM | 2510 nM | 100 nM | –
2 | CCN(CC)C(=O)c1ccc(C(c2ccccc2)N2CCN(CC3CCc4ccccc4C3)CC2)cc1 (centres undefined) | – | – | – | 1.8 nM | – | 6240 nM | – | – | –
3 | CCN(CC)C(=O)c1ccc(C(c2ccccc2)N2CC(C)NC(C)C2)cc1 (centres undefined) | – | – | – | 42 nM | – | – | – | – | –
4 | CCN(CC)C(=O)c1ccc(C(c2ccccc2)N2CCNC3CCCCC32)cc1 (centres undefined) | – | – | – | 29 nM | – | – | – | – | –
5 | CCN(CC)C(=O)c1ccc(C(c2ccccc2)N2CCN(CCO)CC2)cc1 (centres undefined) | – | – | – | 5.5 nM | – | > 10000 nM | – | – | –
6 | CCCN1CCN(C(c2ccccc2)c2ccc(C(=O)N(CC)CC)cc2)CC1 (centres undefined) | – | – | – | 11.4 nM | – | > 10000 nM | – | – | –
7 | C=CCN1CCCN(C(c2ccccc2)c2ccc(C(=O)N(CC)CC)cc2)CC1 (centres undefined) | – | – | – | – | – | – | – | – | 13 nM
8 | CCN(CC)C(=O)c1ccc(C(NCC(C)(C)N)c2ccccc2)cc1 (centres undefined) | – | – | – | 120 nM | – | – | – | – | –
9 | CCN(CC)C(=O)c1ccc(C(c2ccccc2)N2CCN(C3CCCC3)CC2)cc1 (centres undefined) | – | – | – | 5.8 nM | – | – | – | – | –
10 | CCN(CC)C(=O)c1ccc(C(c2ccccc2)N(CC)CCN(C)C)cc1 (centres undefined) | – | – | – | 845 nM | – | – | – | – | –
11 | CCN(CC)C(=O)c1ccc(C(c2ccccc2)N(CCN(C)C)Cc2ccccc2)cc1 (centres undefined) | 48.4 µmol/kg | 7% | 13% | 70 nM | 483 nM | > 10000 nM | > 10000 nM | > 10000 nM | –
12 | CCN(CC)C(=O)c1ccc([C@H](c2ccccc2)N2C[C@@H](C)N(Cc3ccc4c(c3)OCO4)C[C@@H]2C)cc1 | > 200 µmol/kg | 100% | 68% | 0.54 nM | – | 702 nM | 1260 nM | 39.8 nM | –
13 | CCN(CC)C(=O)c1ccc(C(c2ccccc2)N2CCN(c3ccc(O)cc3)CC2)cc1 (centres undefined) | – | – | – | 10 nM | – | > 10000 nM | – | – | –
14 | C=CCN1CCN(C(c2ccccc2)c2ccc(C(=O)N(CC)CC)cc2)CC1 (stereo in doubt; 2) | 145 µmol/kg | 87% | 4% | 4.1 nM | 1990 nM | > 10000 nM | > 10000 nM | 631 nM | –
15 | C=CCN1CCN(C(c2ccccc2)c2ccc(C(=O)N(CC)CC)cc2)CC1 (stereo in doubt; 6 {1} (2)) | – | – | – | 8 nM | – | – | – | – | –
16 | C=CCN1CCN(C(c2ccccc2)c2ccc(C(=O)N(CC)CC)cc2)CC1 (stereo in doubt; 7 {1} (2)) | – | – | – | 8 nM | – | > 50000 nM | – | – | –
17 | C=CCN1C[C@H](C)N([C@H](c2ccc(C(=O)N(CC)CC)cc2)c2cccc(OC)c2)C[C@H]1C [SNC-80] | 30.4 µmol/kg | 100% | 90% | – | 4100 nM | – | 50.1 nM | 7.94 nM | –
